In patent publication US7323457B2, “Substituted sulfonamides and ureas useful for inhibiting kinase activity” (Aventis Pharmaceuticals Inc., priority 2001, dated 2008):

Target: Src Kinase (p60^C-Src) (Homo sapiens, UniProt P12931)
Experiment: Src kinase DELFIA time-resolved fluorometric assay
Format: biochemical
Details: Src kinase inhibitory activity; 100 μM ATP, poly(Glu, Tyr) 4:1 substrate, 15 min at room temp.; read-out: Activity (μMol, Delfia assay. IC50)
Experimental: The compounds 1-25 above were assayed for activity with respect to the Src protein tyrosine kinase by the fluorometric method described in Measurement of the Protein Tyrosine Kinase Activity of c-Src Using Time-Resolved Fluorometry of Europium Chelates, Braunwalder, A.F. et al., Analytical Biochemistry 238, 159-164 (1996), the disclosure of which is incorporated herein by reference, using the materials and procedures further specified below.
General Assay Method for Src-Kinase:
• Costar 384 Clear, non-treated, high-binding plates • Sigma poly(Glu, Tyr) 4:1, ave. MW 35,000 • Src Kinase (p60^C-Src) • Sigma ATP (1.5 mM Stock Soln. in H2O) • MES Buffer: 30 mM MES (pH 6.8) • 10 mM MgCl2 • MBI Buffer: (MES+0.4 mg/ml BSA+0.003% IGEPAL) • Wallac Eu-labelled anti-phosphotyrosine Antibody (CR04-100) • Coating Solution: • 22.5 mM Na2CO3 (pH 9.6) • 27.5 mM NaHCO3 • 0.9% NaCl • Antibody Dilution Buffer: (MES+3% BSA) • DELFIA® Wash Solution (TTBS): • 0.5 M NaCl • 20 mM Tris (pH7.4) • 0.15% Tween 20 • DELFIA Enhancement Solution Method:
The plates were coated with 0.1 mg/ml poly(Glu, Tyr) in Coating Solution, 35 μl/well. […]
The reaction was stopped by aspiration, and then washed 3 times with MES (100 μl/wash). […] 20 μl DELFIA enhancement solution was added and the plates were read on a Wallac Victor plate reader in time-resolved fluorescence mode using 340 nm excitation and 615 nm emission wavelengths.

- IC50: 22 µM
Substance: [4-(Piperidin-4-yl)carbonyl-1-[[2-(4-phenylbutanoyl) amino]-4-[(1-aminocarbonyl-2-(naphth-2-yl))ethylamino]-carbonylaminophenyl]homopiperazine [Example 21]
